From ChEMBL document CHEMBL4483862, “Open-source discovery of chemical leads for next-generation chemoprotective antimalarials” (2018) come the findings set out here.

This assay has as its system Plasmodium berghei. The experiment in a line: Luciferase/luciferin-expressing antifolate-resistant parasites were used to infect a culture of HepG2 cells that were pre-incubated with compounds. Infected hepatocytes emit light due to the luciferase reaction. Assay results are presented as the percent inhibition of light emission compared to control. […]. Conditions: sporozoite; for IC90: read-out: LUCIFERASE INFECTION ASSAY - IC90. In kind it is functional.

Usually IC50 stands for the concentration at which inhibition is half-maximal. A word on the IC90: it is the point of the concentration-response curve where the effect stands at 90%.

Structures are written as SMILES.

Consider `Cc1cc(NC(=O)COC(=O)CCCOc2ccc(Cl)cc2C)no1`, for which the IC90 is over 10 µM. Besides, where the note is “FFLUC_HILL_SLOPE 1.69, FFLUC_R_SQUARED 0.223, read-out: LUCIFERASE INFECTION ASSAY - IC50”, the IC50 was over 10 µM.
Turning to `Cc1ccc(-n2c(SCCCC(=O)c3cccs3)nnc2-c2ccccc2)cc1C`, the IC90 was over 10 µM. For the same compound, the IC50 (FFLUC_HILL_SLOPE 1.75, FFLUC_R_SQUARED 0.116, read-out: LUCIFERASE INFECTION ASSAY - IC50) was over 10 µM.
Regarding `Fc1ccccc1-c1cnn2c(NCCc3ccccn3)ccnc12`, the IC90 worked out at 0.681 µM. In addition, the half-maximal inhibitory concentration (IC50) (FFLUC_HILL_SLOPE 1.74, FFLUC_R_SQUARED 0.803, PBLUC_HILL_SLOPE 0.998, PBLUC_R_SQUARED 0.825, read-out: LUCIFERASE INFECTION ASSAY - IC50) is 0.0754 µM.
Take `O=C(Nc1cccc(S(=O)(=O)NC2CC2)c1)c1ccccc1SCc1ccco1`: the IC90 came to 4.79 µM. For the same compound, the half-inhibitory concentration (IC50) (FFLUC_HILL_SLOPE 1.74, FFLUC_R_SQUARED 0.575, HEPG2TOX_HILL_SLOPE 9.06, HEPG2TOX_R_SQUARED 0.765, PBLUC_HILL_SLOPE 112, PBLUC_R_SQUARED 0.186, read-out: LUCIFERASE INFECTION ASSAY - IC50) was 4.7 µM.
Turning to `COCC(C)n1c(C)cc(C(=O)COC(=O)c2ccccc2SCC(=O)NC2CCCCCCC2)c1C` (stereo not drawn), the IC90 came to 5.25 µM. In addition, under “FFLUC_HILL_SLOPE 1.67, FFLUC_R_SQUARED 0.346, PBLUC_HILL_SLOPE 7.4, PBLUC_R_SQUARED 0.408, read-out: LUCIFERASE INFECTION ASSAY - IC50”, the IC50 stood at 3.9 µM.
With `CN(C)c1ccc(-c2cc3cnc(Nc4cccc(Oc5ccccc5)c4)cc3n2C)cc1`, the IC90 was 6.91 µM. For the same compound, the IC50 (FFLUC_HILL_SLOPE 1.74, FFLUC_R_SQUARED 0.698, HEPG2TOX_HILL_SLOPE 44.7, HEPG2TOX_R_SQUARED 0.888, PBLUC_HILL_SLOPE 2.41, PBLUC_R_SQUARED 0.586, read-out: LUCIFERASE INFECTION ASSAY - IC50) is 2.77 µM.
As to `O=C1C(c2ccccc2)=C(c2ccccc2)C(c2ccccc2)=C1c1ccccc1`, the IC90 is over 8.58 µM. Moreover, the IC50 (FFLUC_HILL_SLOPE 1.74, FFLUC_R_SQUARED 0.65, PBLUC_HILL_SLOPE 1.01, PBLUC_R_SQUARED 0.27, read-out: LUCIFERASE INFECTION ASSAY - IC50) is 4.04 µM.
For the compound `O=C(Sc1ccc(Cl)cc1Cl)c1cccnc1SCCS(=O)(=O)c1ccc(C(F)(F)F)cn1`, the IC90 was over 5.96 µM. In addition, the IC50 (FFLUC_HILL_SLOPE 1.65, FFLUC_R_SQUARED 0.565, PBLUC_HILL_SLOPE 0.597, PBLUC_R_SQUARED 0.0951, read-out: LUCIFERASE INFECTION ASSAY - IC50) was over 5.96 µM.
For `CC(C)c1csc(NC(=O)c2cnn(-c3ccccc3F)c2C(F)(F)F)n1`, the IC90 is 2.32 µM. Further, the concentration for half-maximal inhibition (IC50) (FFLUC_HILL_SLOPE 1.67, FFLUC_R_SQUARED 0.227, HEPG2TOX_HILL_SLOPE 2.85, HEPG2TOX_R_SQUARED 0.664, PBLUC_HILL_SLOPE 0.553, PBLUC_R_SQUARED 0.884, read-out: LUCIFERASE INFECTION ASSAY - IC50) was 0.0438 µM.
Consider `Cc1csc(NC(=O)c2cc(C3CC3)n[nH]2)n1`, for which the IC90 was over 10 µM. Also, the IC50 (FFLUC_HILL_SLOPE 1.65, FFLUC_R_SQUARED 0.902, read-out: LUCIFERASE INFECTION ASSAY - IC50) is over 10 µM.
For `Cc1cccc(C(=O)Nc2nnc(SCc3ccc(C#N)cc3)s2)n1`, the IC90 was 6.71 µM. In addition, the IC50 (FFLUC_HILL_SLOPE 1.7, FFLUC_R_SQUARED 0.312, PBLUC_HILL_SLOPE 60.1, PBLUC_R_SQUARED 0.803, read-out: LUCIFERASE INFECTION ASSAY - IC50) worked out at 6.47 µM.
Turning to `CCc1cccc(Nc2nc3ccccc3s2)c1`, the IC90 is over 10 µM. The IC50 (FFLUC_HILL_SLOPE 1.67, FFLUC_R_SQUARED 0.624, read-out: LUCIFERASE INFECTION ASSAY - IC50) is over 10 µM.
For the compound `CCc1ccc(NC(=O)CN(c2cccc3ccccc23)S(=O)(=O)c2ccc(C)c(C)c2)cc1`, the IC90 was over 10 µM. In addition, the IC50 (FFLUC_HILL_SLOPE 1.69, FFLUC_R_SQUARED 0.486, read-out: LUCIFERASE INFECTION ASSAY - IC50) was over 10 µM.
Consider `CCN(CC)S(=O)(=O)c1ccc(NC(=O)c2ccccc2Nc2cccc(C(F)(F)F)c2)cc1`, for which the IC90 was over 10 µM. Moreover, where the note is “FFLUC_HILL_SLOPE 1.74, FFLUC_R_SQUARED 0.823, read-out: LUCIFERASE INFECTION ASSAY - IC50”, the IC50 is over 10 µM.
As to `O=[N+]([O-])c1ccc(Oc2c(Cl)cc(S(=O)(=O)Nc3cccc(C(F)(F)F)c3)cc2Cl)c(Cl)c1`, the IC90 was over 6.09 µM. Moreover, the IC50 (FFLUC_HILL_SLOPE 1.65, FFLUC_R_SQUARED 0.655, read-out: LUCIFERASE INFECTION ASSAY - IC50) was over 6.09 µM.
Turning to `Fc1cccc(Cl)c1CSc1ccc(Cl)c(Cl)c1`, the IC90 was over 10.3 µM. Moreover, the IC50 (FFLUC_HILL_SLOPE 1.69, FFLUC_R_SQUARED 0.519, read-out: LUCIFERASE INFECTION ASSAY - IC50) is over 10.3 µM.
Turning to `CN(C)c1ccc(C(c2cc(C(C)(C)C)c(O)c(C(C)(C)C)c2)N2CCN(CCO)CC2)cc1` (stereo not drawn), the concentration for an effect of 90% (IC90) is over 10 µM. The half-maximal inhibitory concentration (IC50) (FFLUC_HILL_SLOPE 1.7, FFLUC_R_SQUARED 0.646, PBLUC_HILL_SLOPE 0.736, PBLUC_R_SQUARED 0.152, read-out: LUCIFERASE INFECTION ASSAY - IC50) is over 10 µM.
In the case of `COc1ccc(C(=O)Nc2nc3ccc(C)cn3c2C(=O)NC2CCCC2)cc1`, the IC90 turned out to be 8.02 µM. For the same compound, for the setting “FFLUC_HILL_SLOPE 1.65, FFLUC_R_SQUARED 0.455, HEPG2TOX_HILL_SLOPE 5.25, HEPG2TOX_R_SQUARED 0.908, PBLUC_HILL_SLOPE 10.6, PBLUC_R_SQUARED 0.223, read-out: LUCIFERASE INFECTION ASSAY - IC50”, the IC50 came out at 6.52 µM.
As to `Cn1c(-c2c(-c3ccccc3)n[nH]c2-c2ccccc2O)nc2ccccc21`, the IC90 was over 10 µM. Also, the IC50 (FFLUC_HILL_SLOPE 1.64, FFLUC_R_SQUARED 0.277, read-out: LUCIFERASE INFECTION ASSAY - IC50) is over 10 µM.
For `CN1/C(=C\C(=O)COC(=O)/C=C/c2cn(-c3ccccc3)nc2-c2ccc(F)cc2)C(C)(C)c2ccccc21`, the IC90 was over 10 µM. Also, the IC50 (FFLUC_HILL_SLOPE 1.67, FFLUC_R_SQUARED 0.511, PBLUC_HILL_SLOPE 9.36, PBLUC_R_SQUARED 0.0694, read-out: LUCIFERASE INFECTION ASSAY - IC50) amounted to 9.4 µM.
Consider `CCN(c1ccc(NC(=O)c2cnccn2)cc1)C(C)C`, for which the IC90 is over 10 µM. In addition, the IC50 (FFLUC_HILL_SLOPE 1.65, FFLUC_R_SQUARED 0.318, PBLUC_HILL_SLOPE 0.412, PBLUC_R_SQUARED 0.204, read-out: LUCIFERASE INFECTION ASSAY - IC50) is over 10 µM.
Consider `O=C(NCC#Cc1cccc(C(F)(F)F)c1)c1[nH]nc2ccccc12`, for which the concentration for an effect of 90% (IC90) is over 10 µM. For the same compound, the IC50 (FFLUC_HILL_SLOPE 1.72, FFLUC_R_SQUARED 0.47, read-out: LUCIFERASE INFECTION ASSAY - IC50) is over 10 µM.
As for `CCCCCN1C(=O)/C(=N\n2c(-c3ccccc3F)cs/c2=N\C2CCCCC2)c2ccccc21`, the IC90 was over 10 µM. Under “FFLUC_HILL_SLOPE 1.7, FFLUC_R_SQUARED 0.73, PBLUC_HILL_SLOPE 13.5, PBLUC_R_SQUARED 0.29, read-out: LUCIFERASE INFECTION ASSAY - IC50”, the IC50 worked out at 8.58 µM.
As for `O=C(Cn1ncc(Cl)c(Cl)c1=O)N1N=C(c2ccco2)CC1c1cccs1` (stereo not drawn), the IC90 was over 10 µM. The IC50 (FFLUC_HILL_SLOPE 1.67, FFLUC_R_SQUARED 0.501, PBLUC_HILL_SLOPE 2.36, PBLUC_R_SQUARED 0.757, read-out: LUCIFERASE INFECTION ASSAY - IC50) was 4.46 µM.
For the compound `O=C(Nc1ccc(F)c(Cl)c1)c1[nH]nc2ccccc12`, the 90% effect concentration (IC90) is over 10 µM. Also, the IC50 (FFLUC_HILL_SLOPE 1.67, FFLUC_R_SQUARED 0.554, PBLUC_HILL_SLOPE 0.29, PBLUC_R_SQUARED 0.519, read-out: LUCIFERASE INFECTION ASSAY - IC50) stood at 0.104 µM.
`O=C(OCc1ccc(Cl)cc1)c1cnc(NNc2ncc(C(=O)OCc3ccc(Cl)cc3)c(C(F)(F)F)n2)nc1C(F)(F)F`: the IC90 was determined as 0.682 µM. For the same compound, the IC50 (FFLUC_HILL_SLOPE 1.7, FFLUC_R_SQUARED 0.396, HEPG2TOX_HILL_SLOPE 1.81, HEPG2TOX_R_SQUARED 0.829, PBLUC_HILL_SLOPE 10.6, PBLUC_R_SQUARED 0.55, read-out: LUCIFERASE INFECTION ASSAY - IC50) came out at 0.554 µM.
For `COc1ccc(C2=NNC(=NCc3ccc4c(c3)OCO4)SC2)cc1F`, the IC90 is over 10 µM. Also, the IC50 (FFLUC_HILL_SLOPE 1.69, FFLUC_R_SQUARED 0.437, PBLUC_HILL_SLOPE 4.83, PBLUC_R_SQUARED 0.0332, read-out: LUCIFERASE INFECTION ASSAY - IC50) came to 8.77 µM.
Turning to `CC1CC(=O)N(CC(=O)Nc2ccc(C(F)(F)F)cc2)N=C1c1ccc(Cl)cc1` (stereo not drawn), the 90% effect concentration (IC90) was over 10 µM. Also, the IC50 (FFLUC_HILL_SLOPE 1.68, FFLUC_R_SQUARED 0.0802, HEPG2TOX_HILL_SLOPE 1.48, HEPG2TOX_R_SQUARED 0.946, read-out: LUCIFERASE INFECTION ASSAY - IC50) was over 10 µM.
As to `COc1ccc(NC(=O)Cc2cccs2)cc1S(=O)(=O)Nc1ccc(Cl)cc1`, the IC90 is over 10 µM. Moreover, the IC50 (FFLUC_HILL_SLOPE 1.73, FFLUC_R_SQUARED 0.168, HEPG2TOX_HILL_SLOPE 1.26, HEPG2TOX_R_SQUARED 0.964, PBLUC_HILL_SLOPE 12.3, PBLUC_R_SQUARED 0.183, read-out: LUCIFERASE INFECTION ASSAY - IC50) was 9.75 µM.
